ChEMBL document CHEMBL4177569, “Design, synthesis and preliminary antiproliferative activity studies of new diheteroaryl thioether derivatives” (Bioorg Med Chem Lett, 2017)

Key:
Assay type in all cases: functional, cell-based
[1] = test system: MGC-803; experiment: Antiproliferative activity against human MGC803 cells after 48 hrs by MTT assay; settings: MGC-803, 48 h
[2] = test system: MKN-45; experiment: Antiproliferative activity against human MKN45 cells after 48 hrs by MTT assay; settings: MKN-45, 48 h
[3] = test system: ECa-109 cell line; experiment: Antiproliferative activity against human EC109 cells after 48 hrs by MTT assay; settings: ECa-109, 48 h
[4] = test system: NCI-H1650; experiment: Antiproliferative activity against human NCI-H1650 cells after 48 hrs by MTT assay; settings: NCI-H1650, 48 h

O=c1[nH]cc(F)c(=O)[nH]1 [FLUOROURACIL]
IC50 [1]: 7.52 µM | IC50 [2]: 8.89 µM | IC50 [3]: 6.21 µM | IC50 [4]: 14.2 µM
